According to patent US10800791B2, “Triazole ACC inhibitors and uses thereof” (Gilead Apollo, LLC, priority 2015, dated 2020):
In brackets after ≈: the same amount, converted by molar mass. Where two headings read alike, the source gives them in different places.

Tests used:
human (hACC2) = human (hACC2) (Homo sapiens, UniProt O00763); assay: In vitro ACC inhibition assay (ADP-Glo), hACC2; type: biochemical; conditions: 5 nM ACC2, 20 μM ATP, 20 μM acetyl-CoA
Experimental: The detailed procedure is as follows. […] 10 μL ADP glo reagent was added. […] 20 μL kinase detection reagent was added.

C. albicans = assay: Antifungal Activity Assay (broth microtiter MIC), C. albicans; type: cell-based, Candida albicans; conditions: Candida albicans, ATCC90028, 48 h, ATCC 90028, 3 replicates, MIC recorded at 48 h, read-out: MIC, C. albicans ATCC 90028
Experimental: (§1) Compounds of the present invention were evaluated in an Antifungal Activity Assay. An exemplary procedure for the assay, which measures the susceptibility of various Candida species to antifungal compounds, follows. Compounds to be tested (including fluconazole and amphotericin B) were dissolved in DMSO to obtain a solution having a concentration of 1 mg/mL. These stock solutions were sterile filtered using a 0.22 um nylon syringe filter, then diluted in sterile water to achieve a final concentration of 128 μg/mL.
(§2) All species were grown from frozen stock by directly plating on to freshly prepared Sabouraud Dextrose agar (BD, Difco) and incubated overnight in ambient air at 35° C. for 24 h. A direct suspension was prepared in RPMI 1640+MOPS (Lonza, Biowhittaker) by taking individual colonies from the overnight cultures using sterile swabs soaked in sterile saline. The concentration of the suspension was determined using pre-determined standard curves. These suspensions were then diluted down to 5×10^3 CFU/mL to achieve a final concentration of 2.5×10^3 CFU/mL once added to the microtiter plate as per CLSI guidelines (M27-A3, Vol. 28 No. 14).
(§3) Broth microtiter MIC challenge plates were prepared following CLSI guidelines (M27-A3, Vol. 28 No. 14). The original CLSI guidelines focused on reading Candida MICs after 48 h of incubation. As reading after only 24 h offers a clear advantage of patient care, QC limits are being established for all drugs at 24 h. That being said there are no known interpretive breakpoints for amphotericin B at 24 h and the current fluconazole interpretive breakpoints are based on a 48 h reading. The MICs for the test compounds were recorded at 48 h. All MIC determinations were achieved by visually comparing the growth found in the antibiotic challenged wells to that of the growth control.

C. krusei = assay: Antifungal Activity Assay (broth microtiter MIC), C. krusei; type: cell-based, Candida krusei; conditions: Pichia kudriavzevii, ATCC6258, 48 h, ATCC 6258, 3 replicates, MIC recorded at 48 h, read-out: MIC, C. krusei ATCC 6258
Experimental: as §1, §2, §3

C. parapsilosis = assay: Antifungal Activity Assay (broth microtiter MIC), C. parapsilosis; type: cell-based, Candida parapsilosis; conditions: Lodderomyces parapsilosis, ATCC22019, 48 h, ATCC 22019, 3 replicates, MIC recorded at 48 h, read-out: MIC, C. parapsilosis ATCC 22019
Experimental: as §1, §2, §3

fungal (fACC2) = fungal (fACC2) (UniProt Q00955); conditions: read-out: fACC2 (in vitro ACC2 Inhibition Assay, IC50), ADP-Glo, 5 nM ACC2, 20 μM ATP, 20 μM acetyl-CoA
Chain of fungal (fACC2) (Q00955 whole entry): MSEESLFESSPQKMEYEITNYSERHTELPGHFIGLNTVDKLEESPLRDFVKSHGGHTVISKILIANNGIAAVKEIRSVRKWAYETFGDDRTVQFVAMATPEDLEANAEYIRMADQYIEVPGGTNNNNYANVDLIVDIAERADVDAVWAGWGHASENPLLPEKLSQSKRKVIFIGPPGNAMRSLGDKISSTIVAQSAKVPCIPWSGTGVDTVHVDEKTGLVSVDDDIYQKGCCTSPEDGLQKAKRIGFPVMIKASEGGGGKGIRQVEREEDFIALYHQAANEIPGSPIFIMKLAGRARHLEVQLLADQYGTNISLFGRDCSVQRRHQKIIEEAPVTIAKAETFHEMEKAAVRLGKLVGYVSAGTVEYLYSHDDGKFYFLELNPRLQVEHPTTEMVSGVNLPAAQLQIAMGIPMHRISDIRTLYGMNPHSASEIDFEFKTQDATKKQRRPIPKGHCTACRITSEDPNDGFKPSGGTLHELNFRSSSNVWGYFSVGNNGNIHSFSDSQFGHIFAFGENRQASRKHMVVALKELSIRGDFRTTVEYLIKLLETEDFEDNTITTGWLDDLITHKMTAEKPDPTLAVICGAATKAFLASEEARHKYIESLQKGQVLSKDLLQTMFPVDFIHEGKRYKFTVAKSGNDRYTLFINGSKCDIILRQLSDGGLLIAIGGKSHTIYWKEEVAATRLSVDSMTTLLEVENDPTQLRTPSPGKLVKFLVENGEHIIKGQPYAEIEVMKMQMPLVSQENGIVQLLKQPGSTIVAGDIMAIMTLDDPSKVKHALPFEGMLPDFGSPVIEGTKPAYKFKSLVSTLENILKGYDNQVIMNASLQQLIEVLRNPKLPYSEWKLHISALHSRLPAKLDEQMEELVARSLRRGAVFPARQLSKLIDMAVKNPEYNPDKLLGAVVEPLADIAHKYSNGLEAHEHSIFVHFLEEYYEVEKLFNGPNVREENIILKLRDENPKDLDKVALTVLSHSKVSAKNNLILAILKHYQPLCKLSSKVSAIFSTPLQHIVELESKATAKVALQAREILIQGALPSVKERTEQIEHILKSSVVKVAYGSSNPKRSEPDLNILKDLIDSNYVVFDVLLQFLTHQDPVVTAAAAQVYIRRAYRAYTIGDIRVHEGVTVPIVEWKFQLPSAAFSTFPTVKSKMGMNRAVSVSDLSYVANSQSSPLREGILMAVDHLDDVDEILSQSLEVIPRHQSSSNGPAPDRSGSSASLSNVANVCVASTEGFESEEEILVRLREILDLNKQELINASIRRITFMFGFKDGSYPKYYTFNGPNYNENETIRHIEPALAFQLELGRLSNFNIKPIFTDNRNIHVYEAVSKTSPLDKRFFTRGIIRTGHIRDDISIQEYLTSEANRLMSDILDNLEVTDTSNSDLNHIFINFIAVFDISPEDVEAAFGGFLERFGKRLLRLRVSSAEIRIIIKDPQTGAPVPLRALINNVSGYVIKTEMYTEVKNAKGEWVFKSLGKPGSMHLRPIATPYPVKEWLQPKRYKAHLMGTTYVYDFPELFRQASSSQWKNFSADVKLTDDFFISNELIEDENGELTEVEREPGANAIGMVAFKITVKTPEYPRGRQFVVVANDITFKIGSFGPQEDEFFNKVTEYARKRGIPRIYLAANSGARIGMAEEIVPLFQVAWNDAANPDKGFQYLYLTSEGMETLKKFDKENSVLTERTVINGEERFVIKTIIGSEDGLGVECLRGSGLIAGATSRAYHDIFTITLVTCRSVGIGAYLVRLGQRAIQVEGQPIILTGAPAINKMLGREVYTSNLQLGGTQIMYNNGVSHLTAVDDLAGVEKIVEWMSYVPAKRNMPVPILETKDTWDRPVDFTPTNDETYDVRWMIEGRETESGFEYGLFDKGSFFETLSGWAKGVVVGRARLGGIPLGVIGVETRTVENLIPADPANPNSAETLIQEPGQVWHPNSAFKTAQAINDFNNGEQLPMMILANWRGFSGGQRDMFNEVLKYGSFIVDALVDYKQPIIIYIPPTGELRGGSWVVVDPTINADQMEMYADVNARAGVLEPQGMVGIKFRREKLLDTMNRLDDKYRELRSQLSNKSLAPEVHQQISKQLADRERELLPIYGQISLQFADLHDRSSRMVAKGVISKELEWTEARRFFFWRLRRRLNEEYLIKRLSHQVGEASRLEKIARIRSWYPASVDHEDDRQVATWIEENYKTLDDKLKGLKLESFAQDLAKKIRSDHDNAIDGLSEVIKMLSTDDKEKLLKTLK

Chain of human (hACC2) (O00763 whole entry): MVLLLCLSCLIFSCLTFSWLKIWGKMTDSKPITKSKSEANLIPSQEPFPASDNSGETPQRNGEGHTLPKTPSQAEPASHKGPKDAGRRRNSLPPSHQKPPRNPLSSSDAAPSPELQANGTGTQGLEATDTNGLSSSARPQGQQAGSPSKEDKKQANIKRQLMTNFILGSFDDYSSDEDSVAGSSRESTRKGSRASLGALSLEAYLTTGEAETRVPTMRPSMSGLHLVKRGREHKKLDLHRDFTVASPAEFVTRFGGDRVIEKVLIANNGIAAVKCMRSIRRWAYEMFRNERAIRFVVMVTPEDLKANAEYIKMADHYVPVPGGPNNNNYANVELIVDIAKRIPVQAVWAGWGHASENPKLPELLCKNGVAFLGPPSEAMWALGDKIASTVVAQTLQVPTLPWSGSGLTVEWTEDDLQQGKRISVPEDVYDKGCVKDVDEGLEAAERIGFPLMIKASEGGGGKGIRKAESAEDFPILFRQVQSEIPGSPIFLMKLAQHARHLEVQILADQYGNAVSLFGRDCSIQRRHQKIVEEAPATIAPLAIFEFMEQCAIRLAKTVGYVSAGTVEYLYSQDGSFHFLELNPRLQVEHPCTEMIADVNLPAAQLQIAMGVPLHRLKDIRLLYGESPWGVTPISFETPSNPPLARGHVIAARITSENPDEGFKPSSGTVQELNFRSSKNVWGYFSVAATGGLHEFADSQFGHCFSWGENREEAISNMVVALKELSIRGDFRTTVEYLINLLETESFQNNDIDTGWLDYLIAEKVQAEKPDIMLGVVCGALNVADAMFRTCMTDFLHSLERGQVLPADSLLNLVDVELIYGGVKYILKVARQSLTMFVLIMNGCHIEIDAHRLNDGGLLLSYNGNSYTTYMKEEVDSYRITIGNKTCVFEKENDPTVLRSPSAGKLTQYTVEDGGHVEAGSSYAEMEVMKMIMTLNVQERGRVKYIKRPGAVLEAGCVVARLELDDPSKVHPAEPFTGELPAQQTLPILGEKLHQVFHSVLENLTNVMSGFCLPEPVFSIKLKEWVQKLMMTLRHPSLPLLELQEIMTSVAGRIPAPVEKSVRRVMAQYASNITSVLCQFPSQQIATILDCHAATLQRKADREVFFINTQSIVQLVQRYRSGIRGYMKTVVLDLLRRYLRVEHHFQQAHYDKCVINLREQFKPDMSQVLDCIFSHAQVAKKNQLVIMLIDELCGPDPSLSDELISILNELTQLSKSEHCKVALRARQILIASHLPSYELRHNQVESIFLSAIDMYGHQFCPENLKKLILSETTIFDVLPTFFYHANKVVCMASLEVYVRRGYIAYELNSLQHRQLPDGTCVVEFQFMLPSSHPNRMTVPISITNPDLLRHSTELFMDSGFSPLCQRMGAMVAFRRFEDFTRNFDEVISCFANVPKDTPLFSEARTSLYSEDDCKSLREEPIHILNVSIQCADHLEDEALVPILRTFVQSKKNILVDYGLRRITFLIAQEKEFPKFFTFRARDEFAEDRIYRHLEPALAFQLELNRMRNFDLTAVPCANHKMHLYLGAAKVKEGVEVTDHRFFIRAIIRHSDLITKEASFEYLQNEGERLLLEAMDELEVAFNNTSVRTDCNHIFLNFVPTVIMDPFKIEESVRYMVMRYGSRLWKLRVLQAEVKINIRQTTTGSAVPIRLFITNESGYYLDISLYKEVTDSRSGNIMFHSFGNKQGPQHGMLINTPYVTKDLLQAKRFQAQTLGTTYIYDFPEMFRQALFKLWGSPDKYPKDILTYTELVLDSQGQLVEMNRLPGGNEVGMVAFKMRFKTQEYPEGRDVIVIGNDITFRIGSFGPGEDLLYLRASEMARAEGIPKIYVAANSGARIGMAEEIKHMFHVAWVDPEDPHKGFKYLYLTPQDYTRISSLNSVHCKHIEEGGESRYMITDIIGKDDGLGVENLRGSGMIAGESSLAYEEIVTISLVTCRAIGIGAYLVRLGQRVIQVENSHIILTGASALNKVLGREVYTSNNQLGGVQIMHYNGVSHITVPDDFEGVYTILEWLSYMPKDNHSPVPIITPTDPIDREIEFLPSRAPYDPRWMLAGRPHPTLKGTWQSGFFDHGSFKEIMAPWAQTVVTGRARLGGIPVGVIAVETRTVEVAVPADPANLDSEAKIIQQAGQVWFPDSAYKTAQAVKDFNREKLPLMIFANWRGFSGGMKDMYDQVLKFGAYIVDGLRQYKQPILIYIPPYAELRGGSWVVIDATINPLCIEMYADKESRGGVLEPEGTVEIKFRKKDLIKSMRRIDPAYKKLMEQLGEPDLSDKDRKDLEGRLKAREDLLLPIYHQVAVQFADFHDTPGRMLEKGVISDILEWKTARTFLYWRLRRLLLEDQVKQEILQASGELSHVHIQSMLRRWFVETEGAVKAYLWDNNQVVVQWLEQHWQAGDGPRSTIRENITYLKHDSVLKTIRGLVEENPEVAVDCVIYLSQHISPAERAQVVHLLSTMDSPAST

SMILES | IC50 (human (hACC2); Table 2a) [nM] | IC50 (human (hACC2); Table 2b, additional results) [nM] | MIC (C. albicans; Table 3a) [µg/mL] | MIC (C. albicans; Table 3b (additional results)) [µg/mL] | MIC (C. krusei; Table 3a) [µg/mL] | MIC (C. krusei; Table 3b (additional results)) [µg/mL] | MIC (C. parapsilosis; Table 3a) [µg/mL] | MIC (C. parapsilosis; Table 3b (additional results)) [µg/mL] | IC50 (fungal (fACC2); Table 2a) [nM] | IC50 (fungal (fACC2); Table 2b, additional results) [nM]
COc1ccc(F)cc1[C@H](Cn1c(=O)n(C(C)(C)C(=O)N2CC=CC2)c(=O)c2c(C)c(-n3nccn3)sc21)OCC(C)O (stereo partly shown) [Compound I-121] | 1 to 5 | 1 to 5 | 1.1 to 2 (≈ 1.8 to 3.26 µM) | 1.01 to 2 (≈ 1.65 to 3.26 µM) | 0.25 to 1 (≈ 0.408 to 1.63 µM) | > 4.01 | 1.1 to 2 (≈ 1.8 to 3.26 µM) | 2.01 to 4 (≈ 3.28 to 6.53 µM) | 1 to 5 | 1 to 5
COCCOc1ccc(F)cc1[C@H](Cn1c(=O)n(C(C)(C)C(=O)NC(C)C)c(=O)c2c(C)c(-n3nccn3)sc21)OCCOC [Compound I-122] | 10 to 40 | 10 to 40 | 2.1 to 4 (≈ 3.25 to 6.18 µM) | 2.01 to 4 (≈ 3.11 to 6.18 µM) | 0.25 to 1 (≈ 0.387 to 1.55 µM) | 1.01 to 2 (≈ 1.56 to 3.09 µM) | 1.1 to 2 (≈ 1.7 to 3.09 µM) | 1.01 to 2 (≈ 1.56 to 3.09 µM) | 1 to 5 | 1 to 5
COc1ccc(F)cc1[C@H](Cn1c(=O)n(C(C)(C)C(N)=O)c(=O)c2c(C)c(-n3nccn3)sc21)OCCC(=O)C(F)(F)F [Compound I-123] | 10 to 40 | 10 to 40 | 2.1 to 4 (≈ 3.35 to 6.38 µM) | > 4.01 | 1.1 to 2 (≈ 1.76 to 3.19 µM) | > 4.01 | 2.1 to 4 (≈ 3.35 to 6.38 µM) | > 4.01 | 1 to 5 | 1 to 5
CCc1ccc(F)cc1[C@H](Cn1c(=O)n(C(C)(C)C(=O)O)c(=O)c2c(C)c(-n3nccn3)sc21)OCCO [Compound I-125] | 1 to 5 | 1 to 5 | 2.1 to 4 (≈ 3.85 to 7.33 µM) | > 4.01 | 2.1 to 4 (≈ 3.85 to 7.33 µM) | > 4.01 | 2.1 to 4 (≈ 3.85 to 7.33 µM) | > 4.01 | 1 to 5 | 0.3 to 1
COCCO[C@@H](Cn1c(=O)n(C(C)(C)C(=O)OC(C)C)c(=O)c2c(C)c(-n3nccn3)sc21)c1cc(F)ccc1OC [Compound I-127] | 10 to 40 | 10 to 40 | 1.1 to 2 (≈ 1.82 to 3.31 µM) | 2.01 to 4 (≈ 3.33 to 6.63 µM) | 0.25 to 1 (≈ 0.414 to 1.66 µM) | 2.01 to 4 (≈ 3.33 to 6.63 µM) | 1.1 to 2 (≈ 1.82 to 3.31 µM) | > 4.01 | 1 to 5 | 1 to 5
COCCO[C@@H](Cn1c(=O)n(C(C)(C)C(=O)OC2CCC2)c(=O)c2c(C)c(-n3nccn3)sc21)c1cc(F)ccc1OC [Compound I-128] | 10 to 40 | 10 to 40 | 2.1 to 4 (≈ 3.41 to 6.5 µM) | > 4.01 | 1.1 to 2 (≈ 1.79 to 3.25 µM) | 2.01 to 4 (≈ 3.26 to 6.5 µM) | 2.1 to 4 (≈ 3.41 to 6.5 µM) | 2.01 to 4 (≈ 3.26 to 6.5 µM) | 1 to 5 | 1 to 5
COc1ccc(F)cc1[C@H](Cn1c(=O)n(C(C)(C)C(=O)OC(C)C)c(=O)c2c(C)c(-n3nccn3)sc21)OCCO [Compound I-129] | 1 to 5 | 1 to 5 | 1.1 to 2 (≈ 1.87 to 3.39 µM) | 1.01 to 2 (≈ 1.71 to 3.39 µM) | 0.25 to 1 (≈ 0.424 to 1.7 µM) | 0.25 to 1 (≈ 0.424 to 1.7 µM) | 0.25 to 1 (≈ 0.424 to 1.7 µM) | > 4.01 | 1 to 5 | 1 to 5
